# Data as given in patent US4341798A, “Amide derivatives of p-isobutyl-phenyl-propionic acids and related pharmaceutical compositions” (Laboratori Prophin S.p.A., priority 1980, dated 1982).
# “And” between values parts separate entries of the source, which are not always exact repeats. Equal entries are not always repeated. Where two headings read alike, the source gives them in different places.
# What was measured:
# [1] = Oedema induced by egg white in the rat (acute inflammation); assay type: in vivo; details: 100 mg/kg p.o., controls 20
# Source text: (§1) The anti-inflammatory activity has been tested by the classic tests of the oedema induced by kaolin and egg white, which repeat two significant and different phases in the pathogenesis of the inflammatory process.
# (§2) The kaolin, injected in the tibio-tarsal connection of the rat, gives place to a chronic inflammation, whereas the egg white, injected in the subplantar area of the rat, causes an acute inflammatory state.
# [2] = for Mortality in 28 days: male and female rats
# [3] = in vivo; details: rat, ip
# [4] = Acute toxicity per os in the mouse; assay type: in vivo
# Source text: The compounds of the invention have been subjected to pharmacological tests, showing that they have a modeste or even negligible toxicity.
# [5] = Teratogenic or embryotoxic action in the mouse; assay type: in vivo
# [6] = (C) Analgesic activity on the stretching induced by acetic acid in the mouse; assay type: in vivo
# Source text: (C) Analgesic activity on the "stretching" induced by acetic acid in the mouse.
# (Fennessy M. R., Lee C. R. "Methods in Narcotic Research" Eds. Ehrenpreise Neidle Dekker--New York 1975).
# [7] = Teratogenic or embryotoxic action in the rabbit; assay type: in vivo
# [8] = in vivo; details: rat
# [9] = (B) Inhibition of the arthritis induced by Freund adjuvant in the rat; assay type: in vivo
# Source text: (B) Inhibition of the arthritis induced by Freund adjuvant in the rat. (Newbould B.B. Brit. Journ. of Pharmacol. 21,127, 1963).
# [10] = Solubility; assay type: physicochemical
# [11] = Acute toxicity by oral route in the rat; assay type: in vivo
# [12] = Therapeutical indexes (TD50 of 28 day subacute toxicity versus ED50 of tests A-D); assay type: in vivo; details: TD50 (28 days) versus ED50 of tests A-D
# [13] = Oedema induced by kaolin in the rat (chronic inflammation); assay type: in vivo; details: 100 mg/kg p.o., controls 13
# Source text: as §1, §2
# [14] = (D) Analgesic activity in the Flinch-jump test in the rat; assay type: in vivo
# Source text: (D) Analgesic activity in the Flinch-jump test in the rat.
# (Turner R. A. "Screening methods in Pharmacology" Accademic Press--New York 1965).
# [15] = rat
# [16] = Acute toxicity by intraperitoneal route in the mouse; details: in vivo, ip
# [17] = (A) Inhibition of the oedema induced by carragenin in the rat paw; assay type: in vivo; details: for ED50: rat paw
# Source text: (A) Inhibition of the oedema induced by carragenin in the […]. Arch. Int. Pharmacodyn. 99,474. 1954). […] The subject oedema was induced in the rat and in the control animals caused a volume increase of the paw by 57.55%.
# [18] = mouse, molar basis, read-out: ED50, stretching induced by acetic acid (molar basis)
# [19] = mouse, read-out: ED50, stretching induced by acetic acid
# [20] = rat, molar basis, read-out: ED50, Freund adjuvant arthritis (molar basis)
# [21] = Flinch-jump test, rat, read-out: ED50, dose causing a 50% increase of the algogenic stimulus
# [22] = rat, molar basis, read-out: ED50, Flinch-jump test (molar basis)
# [23] = molecular weight taken into consideration, read-out: ED50, inhibition of carragenin oedema (molar basis)
# [24] = read-out: ED50, inhibition of carragenin oedema
compound,measurement,setting,value
"CC(C)Cc1ccc(C(C)C(=O)Nc2cccc(C(F)(F)F)c2)cc1 (stereo not shown) [BT-03, p-isobutyl-phenyl-propionamide of metatrifluorotoluidine]",Egg white test increase %,[1],10 ± 5.1%
same,animals died during the test period,"[2]; rat, in vivo, 200 mg/kg",two
same,LD50,"[3]; LD50 by intraperitoneal route in the rat, female rats",1760 mg/kg
same,LD50,"[3]; LD50 by intraperitoneal route in the rat, male rats",1620 mg/kg
same,LD50,"[3]; LD50 ± f.l. (P 0,05), intraperitoneal, f.l. = fiduciary limits",1200 ± 264 mg/kg
same,LD50 by oral route in the mouse,[4],has not permitted as well to determine any LD50 value
same,teratogenic or embryotoxic action,[5],have not demonstrated any teratogenic or embryotoxic action
same,times more active than Ibuprofen,[6]; molar basis,"about 1,4 times"
same,inhibition of stretching,[6]; mouse,does inhibit the stretching induced by acetic acid proportionally to the administered dose
same,ED50,[6]; [18],350 µmol/kg
same,ED50,[6]; [19],123 mg/kg
same,teratogenic or embryotoxic action,[7],have not demonstrated any teratogenic or embryotoxic action
same,TD50 at 672 h,[8],660 µmol/kg
same,ED50,"[9]; Freund adjuvant, rat, read-out: ED50, dose which causes the volume increase of the paw to be reduced by 50%",87 mg/kg
same,activity with respect to Ibuprofen,[9]; proportionally to the administered doses,superior as regards the activity and of lower toxicity with respect to Ibuprofen
same,inhibition of lesions directly induced by Freund adjuvant in the injected paw,[9]; rat,inhibit the lesions directly induced by the Freund adjuvant in the injected paw
same,inhibition of the development of secundary lesions,[9]; rat,capable of inhibiting the development of the secundary lesions
same,ED50,[9]; [20],250 µmol/kg
same,solubility,[10],insoluble in water and soluble in most organic solvents
same,acute toxicity,[11]; both by oral and by intraperitoneal route,very low acute toxicity
same,LD50,"[11]; rat, in vivo, po, 4000 mg/kg",> 4000 mg/kg
same,therapeutical index compared with Ibuprofen,[12],A constant advantage
same,Kaolin test increase %,[13],7 ± 5.5%
same,ED50,[14]; [21],129 mg/kg
same,"activity, times greater than that of the reference substance (Ibuprofen)",[14]; molar basis,about 1.4 times
same,increase of the algogenic threshold,[14]; rat,"increase of the algogenic threshold, proportionally to the administered dose"
same,ED50,[14]; [22],370 µmol/kg
same,Mortality after 7 days,[15]; in vivo,1/6 and 5/6 and 6/6
same,LD50,[16]; female mice,1190 mg/kg
same,LD50,[16]; male mice,940 mg/kg
same,times less active than Naproxene,[17]; molar basis,about 1.4 times
same,times more active than Ibuprofen,[17]; molar basis,2.8 times
same,ED50,[17]; [23],290 µmol/kg
same,ED50,[17]; [24],103 mg/kg
"CC(C)Cc1ccc(C(C)C(=O)O)cc1 (stereo not shown) [Ibuprofen, p-isobutyl-phenyl-propionic acid]",Mortality in 28 days,[2]; 25 mg/kg,0/10
same,Mortality in 28 days,[2]; 50 mg/kg,3/10
same,Mortality in 28 days,[2]; 100 mg/kg,4/10
same,Mortality in 28 days,[2]; 200 mg/kg,5/10
same,ED50,[6]; [18],500 µmol/kg
same,ED50,[6]; [19],105 mg/kg
same,TD50 at 672 h,[8],590 µmol/kg
same,ED50,[9]; [20],300 µmol/kg
same,ED50,[14]; [21],108 mg/kg
same,ED50,[14]; [22],520 µmol/kg
same,Mortality after 7 days,[15]; 250 mg/kg intraperitoneal,0/6
same,Mortality after 7 days,[15]; 360 mg/kg intraperitoneal,2/6
same,Mortality after 7 days,[15]; 520 mg/kg intraperitoneal,5/6
same,Mortality after 7 days,[15]; 750 mg/kg intraperitoneal,6/6
same,ED50,[17]; [23],820 µmol/kg
same,ED50,[17]; [24],170 mg/kg
"COc1ccc2cc([C@H](C)C(=O)O)ccc2c1 [Naproxene, d-2(6'-methoxy-2'-naphtyl)-propionic acid]",Mortality in 28 days,[2]; 25 mg/kg,2/10
same,Mortality in 28 days,[2]; 50 mg/kg,6/10
same,Mortality in 28 days,[2]; 100 mg/kg,10/10
same,ED50,[17]; [23],210 µmol/kg
same,ED50,[17]; [24],47.9 mg/kg
CC(C)Cc1ccc(C(C)C(=O)NC(CCC(=O)O)C(=O)O)cc1 (stereo not shown) [glutamic amide of the p-isobutyl-phenyl-propionic acid],solubility,[10],"not soluble in water, diluted HCl and cyclohexane"
lysinamide of p-isobutyl-phenyl-propionic acid,Egg white test increase %,[1],11 ± 5.6%
same,Kaolin test increase %,[13],7.1 ± 5.3%
